Assay results as given in patent US10925831B2, “Liposomal formulations of platinum-acridine anticancer agents and methods thereof” (Wake Forest University, priority 2017, dated 2021).

Test system: A549 xenografts
Experiment: A549 xenograft study
Format: in vivo, mice
Conditions: P8-A1 q4dx4 i.v. 0.4 mg/kg; Lipo4*-P8-A1 q4dx11 i.v. 0.4 mg/kg; cisplatin q4dx11 i.p. 4.0 mg/kg; n=8
Description: FIGS. 10A, 10B, 10C and 10D illustrate evaluation of P8-A1 and its liposomal formulation, Lipo4-P8-A1, in a A549 xenograft model in mice. FIGS. 10 A-B illustrate tumor volumes and mouse weights monitored for Lipo4-P8-A1 and control, administered q4dx4, i.v. @ 0.4 mg/kg, n=10. Tumor growth inhibition is 65% on day 41, P<0.05. Mouse weight loss is 22% on day 41, potentially reversible. No other toxicity symptoms noted. FIGS. 10 C-D illustrate tumor volumes and mouse weights monitored for P8-A1 (q4dx4, i.v. @ 0.4 mg/kg), Lipo4*-P8-A1, (q4dx11, i.v. @ 0.4 mg/kg), cisplatin (q4dx11, i.p. @ 4.0 mg/kg), and control (q4dx11, i.v.). A total of 8 mice per group were treated (n=8). See text for discussion. […]
A549 Xenograft study. […] Animal weights and tumor volumes were measured and recorded throughout the entire study after the first dose was administered. Tumor volumes were determined using the formula: V (mm^3)=d^2×D/2, where d and D are the shortest and longest dimension of the tumor, respectively, and are reported as the sum of both tumors for each test animal. […] The concentration of Pt in selected tissues was determined by quadrupole inductively-coupled mass spectrometry (ICP-MS) on a Thermo ICP-MS instrument at the Analytic Chemistry Service facility of Research Triangle Institute, Research Triangle Park, N.C. […]

SMILES: N.N.[Cl][Pt][Cl] [Cisplatin, cisplatin]
- antitumor efficacy, growth inhibition (Study B): does not show efficacy
